Results published in US20060069132A1, “Azolecarboxamide herbicides” (priority 2004, published 2006).

Legend:
blackgrass = assay: Test B postemergence herbicide test; type: in vivo, Alopecurus myosuroides; details: scale 0 (no effect) to 100 (complete control)
In short: (§1)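 Postemergence plants were sprayed with formulated test chemicals at 2 to 18 cm height (1- to 4-leaf stage); paddy species were grown to the 2-leaf stage. After 13 to 15 days in a greenhouse, injury was rated visually against untreated controls on a 0–100 scale (0 = no effect, 100 = complete control).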

rice [1] = assay: Test B pre-/postemergence herbicide test; type: in vivo, Oryza sativa; details: preemergence, 125 g ai/ha; 0 to 100 scale, 0 is no effect, 100 is complete control
In short: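 Greenhouse pot assay with simultaneous preemergence (treated seed) and postemergence (2–18 cm seedlings) applications of surfactant-containing, non-phytotoxic solvent formulations. Response scored visually 13–15 days later on a 0–100 scale, 100 meaning complete control.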

wild oat = assay: Test B postemergence herbicide test; type: in vivo, Avena fatua; details: scale 0 (no effect) to 100 (complete control)
In short: (§2)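 Each value is a visual 0–100 response rating taken against controls 13 to 15 days after treatment in the greenhouse. Plants received formulated chemical postemergence at the 1- to 4-leaf stage or, in flooded paddy, at the 2-leaf stage.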

barnyardgrass [2] = assay: Test B pre-/postemergence herbicide test; type: in vivo, Echinochloa crus-galli
In short: (§3)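 Seeds were planted and treated preemergence with compounds formulated in a non-phytotoxic solvent mixture containing surfactant, while plants at the 1- to 4-leaf stage (2 to 18 cm) received postemergence sprays. Flooded paddy plants were grown to the 2-leaf stage. After 13 to 15 days in a greenhouse, injury was visually rated 0–100 against untreated controls.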

morningglory = assay: Test B pre-/postemergence herbicide test; type: in vivo, Ipomoea coccinea
In short: as §3

wheat = assay: Test B postemergence herbicide test; type: in vivo, Triticum aestivum; set-up: key to Wheat plant response rating: 0 = no effect, 100 = complete control; details: scale 0 (no effect) to 100 (complete control)
In short: as §2

Surinam grass = assay: Test B pre-/postemergence herbicide test; type: in vivo, Urochloa decumbens
In short: (§4)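 Plants compared with untreated controls 13–15 days post-treatment and given a visual 0–100 injury score. Applications: preemergence to seeds; postemergence at 1- to 4-leaf (2–18 cm); paddy species flooded, 2-leaf stage. Vehicle non-phytotoxic, surfactant included.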

[3] = tested on: small flower umbrella sedge; assay: Test B flooded paddy test; type: in vivo, Cyperus difformis; details: 1000 g ai/ha, visual rating, scale 0 to 100 (0 no effect, 100 complete control), 13 to 15 days
In short: as §1

ducksalad = assay: Test B flooded paddy test; type: in vivo, Heteranthera limosa; details: 1000 g ai/ha, visual rating, scale 0 to 100 (0 no effect, 100 complete control), 13 to 15 days
In short: as §1

giant foxtail = assay: Test B pre-/postemergence herbicide test; type: in vivo, Setaria faberi
In short: as §4

lambsquarters = assay: Test B pre-/postemergence herbicide test; type: in vivo, Chenopodium album
In short: as §4

barnyardgrass [4] = assay: Test B flooded paddy test; type: in vivo, Echinochloa crus-galli; details: 1000 g ai/ha, visual rating, scale 0 to 100 (0 no effect, 100 complete control), 13 to 15 days
In short: as §1

cocklebur = assay: Test B pre-/postemergence herbicide test; type: in vivo, Xanthium strumarium
In short: as §3

corn = assay: Test B pre-/postemergence herbicide test; type: in vivo, Zea mays
In short: as §4

velvetleaf = assay: Test B pre-/postemergence herbicide test; type: in vivo, Abutilon theophrasti
In short: as §4

rice [5] = assay: Test B flooded paddy test; type: in vivo, Oryza sativa; details: 1000 g ai/ha, visual rating, scale 0 to 100 (0 no effect, 100 complete control), 13 to 15 days
In short: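 Formulated test chemicals went onto postemergence plants measuring 2 to 18 cm, at one to four leaves. For the paddy assay, species had reached two leaves. Scoring took place 13–15 days later by eye, relative to untreated plants, using 0 for no effect up to 100 for full control.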

large crabgrass = assay: Test B pre-/postemergence herbicide test; type: in vivo, Digitaria sanguinalis
In short: as §4

pigweed = assay: Test B pre-/postemergence herbicide test; type: in vivo, Amaranthus retroflexus
In short: as §4

[6] = Postemergence, 500 g ai/ha, visual rating after 13 to 15 days
[7] = postemergence, 125 g ai/ha, visual rating
[8] = 500 g ai/ha, visual rating 0-100, 0 no effect, 100 complete control, preemergence
[9] = Postemergence, 500 g ai/ha, visual rating after 13 to 15 days, scale 0 (no effect) to 100 (complete control)
[10] = postemergence, 125 g ai/ha, visual rating, scale 0 (no effect) to 100 (complete control)
[11] = preemergence, 125 g ai/ha, 0 to 100 scale, 0 is no effect, 100 is complete control

CCCCn1nc(C(C)(C)C)cc1C(=O)Nc1cccc(C(C)=NO)c1 [Compound 119]
Plant response rating, Blackgrass (blackgrass; [6]): 10
Blackgrass plant response rating (blackgrass; [7]): 0
Plant response rating, Rice (rice [1]): 0
Plant response rating, Oat, Wild (wild oat; [6]): 20
Oat, Wild plant response rating (wild oat; [7]): 10
Plant response rating, Barnyardgrass (barnyardgrass [2]; [8]): 10
Plant response rating, Barnyardgrass (barnyardgrass [2]; [9]): 10
Barnyardgrass plant response rating (barnyardgrass [2]; [10]): 0
Plant response rating, Barnyardgrass (barnyardgrass [2]; [11]): 0
Plant response rating, Morningglory (morningglory; [8]): 10
Plant response rating, Morningglory (morningglory; [9]): 40
Morningglory plant response rating (morningglory; [10]): 0
Plant response rating, Morningglory (morningglory; [11]): 0
Plant response rating, Wheat (wheat; [6]): 0
Wheat plant response rating (wheat; [7]): 0
Plant response rating, Surinam Grass (Surinam grass; [8]): 10
Plant response rating, Surinam Grass (Surinam grass; [9]): 10
Surinam Grass plant response rating (Surinam grass; [10]): 10
Plant response rating, Surinam Grass (Surinam grass; [11]): 0
Sedge, Umbrella plant response rating [3]: 0
Ducksalad plant response rating (ducksalad): 0
Plant response rating, Foxtail, Giant (giant foxtail; [8]): 0
Plant response rating, Foxtail, Giant (giant foxtail; [9]): 10
Foxtail, Giant plant response rating (giant foxtail; [10]): 10
Plant response rating, Foxtail, Giant (giant foxtail; [11]): 0
Plant response rating, Lambsquarters (lambsquarters; [8]): 0
Plant response rating, Lambsquarters (lambsquarters; [9]): 60
Lambsquarters plant response rating (lambsquarters; [10]): 0
Plant response rating, Lambsquarters (lambsquarters; [11]): 0
Barnyardgrass plant response rating (barnyardgrass [4]): 0
Plant response rating, Cocklebur (cocklebur; [8]): 0
Plant response rating, Cocklebur (cocklebur; [9]): 60
Cocklebur plant response rating (cocklebur; [10]): 0
Plant response rating, Cocklebur (cocklebur; [11]): 0
Plant response rating, Corn (corn; [8]): 0
Plant response rating, Corn (corn; [9]): 30
Corn plant response rating (corn; [10]): 10
Plant response rating, Corn (corn; [11]): 0
Plant response rating, Velvetleaf (velvetleaf; [8]): 10
Plant response rating, Velvetleaf (velvetleaf; [9]): 50
Velvetleaf plant response rating (velvetleaf; [10]): 0
Plant response rating, Velvetleaf (velvetleaf; [11]): 0
Rice plant response rating (rice [5]): 0
Plant response rating, Crabgrass, Large (large crabgrass; [8]): 80
Plant response rating, Crabgrass, Large (large crabgrass; [9]): 20
Crabgrass, Large plant response rating (large crabgrass; [10]): 20
Plant response rating, Crabgrass, Large (large crabgrass; [11]): 20
Plant response rating, Pigweed (pigweed; [8]): 0
Plant response rating, Pigweed (pigweed; [9]): 30
Pigweed plant response rating (pigweed; [10]): 0
Plant response rating, Pigweed (pigweed; [11]): 0
